Assay results from ChEMBL document CHEMBL3885861, “Open TG-GATES”.

Organism: Rattus norvegicus
Test: Open TG-GATES - Regimen: Daily Repeat
Assay type: toxicity, organism-based, Sprague-Dawley
Set-up: regimen Daily Repeat, gender Male, age 6 weeks
Conditions: in vivo, po, route gavage; for TG / TP / gamma-GTP / ALP / ALT / AST / BUN / CRE / Ca / Cl / DBIL / GLC / IP / K / LDH / Na / PL / RALB / TBIL / TC: tissue Plasma; for APTT / Bas / Eos / Fbg / Ht / Lym / MCH / MCHC / MCV / Mono / PT / Plat / RBC / Ret / WBC / Hb / Neu: tissue Blood; for KIDNEY_L / KIDNEY_R / KIDNEY_TOTAL: tissue Kidney; for LIVER: tissue Liver
[1] = 0 mg/kg, […], dose level Control, time 28 day
[2] = 100 mg/kg, 72 h, dose level Low, time 3 day
[3] = 100 mg/kg, […], dose level Low, time 7 day
[4] = 100 mg/kg, […], dose level Low, time 14 day
[5] = 100 mg/kg, […], dose level Low, time 28 day

SMILES: CCOc1ccc(NC(C)=O)cc1 [PHENACETIN]
- TG [1]: 162.4 mg/dL
- TP [1]: 6.4 g/dL
- gamma-GTP [1]: 1 IU/L
- TERMINAL_BW [2]: 232.8 g
- APTT [2]: 20.2 s
- Bas [2]: 0%
- Eos [2]: 1.2%
- Fbg [2]: 290.4 mg/dL
- Ht [2]: 41.7%
- Lym [2]: 76.8%
- MCH [2]: 20.4 pg
- MCHC [2]: 33%
- MCV [2]: 61.8 fL
- Mono [2]: 2.6%
- PT [2]: 13.4 s
- Plat [2]: 116.5 x10_4/uL
- RBC [2]: 676.4 x10_4/ul
- Ret [2]: 5.2%
- WBC [2]: 101.2 x10_2/uL
- KIDNEY_L [2]: 1 g
- KIDNEY_R [2]: 1 g
- KIDNEY_TOTAL [2]: 2.1 g
- LIVER [2]: 10.9 g
- ALP [2]: 1708.4 IU/L
- ALT [2]: 40 IU/L
- AST [2]: 70.4 IU/L
- BUN [2]: 13 mg/dL
- CRE [2]: 0.2 mg/dL
- Ca [2]: 11.2 mg/dL
- Cl [2]: 105.8 meq/L
- DBIL [2]: 0.006 mg/dL
- GLC [2]: 172.8 mg/dL
- IP [2]: 6.8 mg/dL
- K [2]: 4.2 meq/L
- LDH [2]: 148 IU/L
- Na [2]: 143.4 meq/L
- PL [2]: 158.8 mg/dL
- RALB [2]: 2.7 g/dL
- TBIL [2]: 0.04 mg/dL
- TC [2]: 77 mg/dL
- TG [2]: 110.6 mg/dL
- TP [2]: 5.8 g/dL
- gamma-GTP [2]: 1.2 IU/L
- TERMINAL_BW [3]: 270.6 g
- TERMINAL_BW [4]: 323.2 g
- TERMINAL_BW [5]: 411.2 g
- APTT [3]: 16.8 s
- Bas [3]: 0%
- Eos [3]: 1.2%
- Fbg [3]: 298.2 mg/dL
- Hb [3]: 14.1 g/dL
- Ht [3]: 42%
- Lym [3]: 78.2%
- MCHC [3]: 33.7%
- MCV [3]: 60.3 fL
- Mono [3]: 2%
- Neu [3]: 18%
- PT [3]: 13.4 s
- Plat [3]: 123.3 x10_4/uL
- RBC [3]: 696.4 x10_4/ul
- Ret [3]: 5.6%
- WBC [3]: 96.3 x10_2/uL
- APTT [4]: 17.8 s
- Bas [4]: 0.4%
- Eos [4]: 0.8%
- Fbg [4]: 292.4 mg/dL
- Ht [4]: 43.4%
- Lym [4]: 79.8%
- MCH [4]: 19.9 pg
- MCHC [4]: 34%
- MCV [4]: 58.5 fL
- Mono [4]: 2%
- Neu [4]: 16.6%
- PT [4]: 13.3 s
- Plat [4]: 118.2 x10_4/uL
- RBC [4]: 740.8 x10_4/ul
- Ret [4]: 4.1%
- WBC [4]: 112.5 x10_2/uL
- APTT [5]: 18.4 s
- Bas [5]: 0%
- Eos [5]: 1.6%
- Fbg [5]: 278.8 mg/dL
- Hb [5]: 15 g/dL
- Ht [5]: 43.8%
- MCH [5]: 19 pg
- MCHC [5]: 34.3%
- MCV [5]: 55.3 fL
- Mono [5]: 2.4%
- Plat [5]: 122.4 x10_4/uL
- RBC [5]: 792.8 x10_4/ul
- Ret [5]: 3%
- WBC [5]: 92.4 x10_2/uL
- KIDNEY_L [3]: 1.1 g
- KIDNEY_R [3]: 1.1 g
- KIDNEY_TOTAL [3]: 2.3 g
- KIDNEY_L [4]: 1.2 g
- KIDNEY_R [4]: 1.2 g
- KIDNEY_TOTAL [4]: 2.5 g
- KIDNEY_L [5]: 1.4 g
- KIDNEY_R [5]: 1.4 g
- KIDNEY_TOTAL [5]: 2.8 g
- LIVER [3]: 12.8 g
- LIVER [4]: 13.9 g
- LIVER [5]: 16.4 g
- ALP [3]: 1550.8 IU/L
- BUN [3]: 15.4 mg/dL
- CRE [3]: 0.2 mg/dL
- Ca [3]: 11.2 mg/dL
- Cl [3]: 104.8 meq/L
- DBIL [3]: 0.006 mg/dL
- GLC [3]: 186 mg/dL
- IP [3]: 6.9 mg/dL
- K [3]: 4.3 meq/L
- LDH [3]: 79.4 IU/L
- Na [3]: 143.4 meq/L
- PL [3]: 165.2 mg/dL
- RALB [3]: 2.7 g/dL
- TBIL [3]: 0.044 mg/dL
- TG [3]: 152 mg/dL
- TP [3]: 6 g/dL
- gamma-GTP [3]: 1 IU/L
- ALP [4]: 1582 IU/L
- ALT [4]: 39.4 IU/L
- AST [4]: 66.4 IU/L
- CRE [4]: 0.2 mg/dL
- Ca [4]: 10.9 mg/dL
- Cl [4]: 106 meq/L
- DBIL [4]: 0.022 mg/dL
- GLC [4]: 184.2 mg/dL
- IP [4]: 6.7 mg/dL
- K [4]: 4.2 meq/L
- LDH [4]: 118.6 IU/L
- Na [4]: 143.4 meq/L
- PL [4]: 162 mg/dL
- RALB [4]: 2.7 g/dL
- TBIL [4]: 0.062 mg/dL
- TC [4]: 73.8 mg/dL
- TG [4]: 157 mg/dL
- TP [4]: 6 g/dL
- gamma-GTP [4]: 1.2 IU/L
- ALP [5]: 1231.2 IU/L
- ALT [5]: 35.8 IU/L
- AST [5]: 60.8 IU/L
- BUN [5]: 15.6 mg/dL
- CRE [5]: 0.3 mg/dL
- Ca [5]: 10.8 mg/dL
- Cl [5]: 105.6 meq/L
- DBIL [5]: 0.02 mg/dL
- GLC [5]: 191.8 mg/dL
- IP [5]: 6.1 mg/dL
- K [5]: 3.7 meq/L
- LDH [5]: 66.6 IU/L
- Na [5]: 145.2 meq/L
- PL [5]: 148 mg/dL
- RALB [5]: 2.9 g/dL
- TBIL [5]: 0.052 mg/dL
- TC [5]: 63.8 mg/dL
- TG [5]: 156 mg/dL
